Reference: PubChem BioAssay (NCI)
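Five compound concentrations were applied to cells in 96-well plates for 48 hours; endpoints were derived by simple linear interpolation of the resulting dose-response curve. At the TGI there is no net growth.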

What was measured:
Test in all cases: inhibition of tumour cell growth, NCI panel, 48 h
COLO 205 colon = test system: COLO 205 colon
OVCAR-3 ovarian = test system: OVCAR-3 ovarian
LOX IMVI melanoma = test system: LOX IMVI melanoma
SR leukemia = test system: SR leukemia
SNB-75 CNS = test system: SNB-75 CNS
HOP-92 NSCLC = test system: HOP-92 NSCLC
HL-60(TB) leukemia = test system: HL-60(TB) leukemia
TK-10 renal = test system: TK-10 renal
MDA-MB-231 breast = test system: MDA-MB-231 breast
CCRF-CEM leukemia = test system: CCRF-CEM leukemia
RPMI-8226 leukemia = test system: RPMI-8226 leukemia

SMILES	TGI (COLO 205 colon) [µM]	TGI (OVCAR-3 ovarian) [µM]	TGI (LOX IMVI melanoma) [µM]	TGI (SR leukemia) [µM]	TGI (SNB-75 CNS) [µM]	TGI (HOP-92 NSCLC) [µM]	TGI (HL-60(TB) leukemia) [µM]	TGI (TK-10 renal) [µM]	TGI (MDA-MB-231 breast) [µM]	TGI (CCRF-CEM leukemia) [µM]	TGI (RPMI-8226 leukemia) [µM]
CC(C)(C)c1cc(C(=O)/C=C/c2ccn[nH]2)cc(C(C)(C)C)c1O	4.98	7.39	3.48	3.61	9.61	5.53	5.64	2.92	3.97	5.97	3.37
O=C(/C=C(\O)c1ccccc1)/C(=C/C(=O)c1ccccc1)NN=C(c1ccccc1)c1ccccc1	> 100	67.1	> 100	> 100	> 100	> 100	6.8	97.6	> 100	54.7	> 100
O=c1[nH]cnc2sc(=S)c3c(c12)CCC3	62.7	53.2	> 100	35.5	> 100	66.3	57.6	61.9	> 100	49	43
